A short description of data set [1]: Terminal elimination half-life of SPP100 following single oral dose of SPP100 75 mg capsule studied in healthy human. Type of data set: ADME, organism-based. To be noted: plasma.
Data set [2] in a line: Excretion (0-168h) of aliskiren in urine following intravenous administration of [14C] aliskiren hemifumarate at 1 mg.Kg-1 level in marmoset. It counts as ADME, organism-based, Callithrix jacchus. To be noted: in vivo.
The target in another data set is T1, CYP1A2 (Homo sapiens, UniProt P05177).
T1 sequence (P05177 whole entry): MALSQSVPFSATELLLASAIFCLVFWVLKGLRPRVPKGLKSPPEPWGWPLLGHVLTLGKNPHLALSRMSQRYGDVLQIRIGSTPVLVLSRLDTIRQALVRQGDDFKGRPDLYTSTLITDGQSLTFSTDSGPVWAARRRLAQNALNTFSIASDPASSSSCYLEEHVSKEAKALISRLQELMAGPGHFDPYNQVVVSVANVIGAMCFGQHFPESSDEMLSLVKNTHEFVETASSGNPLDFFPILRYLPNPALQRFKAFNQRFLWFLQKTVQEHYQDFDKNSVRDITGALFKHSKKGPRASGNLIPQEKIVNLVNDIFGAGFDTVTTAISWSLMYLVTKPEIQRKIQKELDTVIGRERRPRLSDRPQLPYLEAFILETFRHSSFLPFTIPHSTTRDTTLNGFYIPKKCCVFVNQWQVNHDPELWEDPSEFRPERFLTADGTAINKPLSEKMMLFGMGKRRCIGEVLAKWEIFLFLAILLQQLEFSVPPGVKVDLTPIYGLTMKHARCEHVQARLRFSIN
Briefly: Inhibitory activity of 200 uM SPP100 on 484 Pmoles of cDNA-derived CYP1A2 enzyme in microsome prepared from human lymphoblastoid cell line. It counts as ADME, microsomes. More on the design: conc 200 uM, interact cpd conc 50 uM. To be noted: probe phenacetin.

For data set [3], the target named is T2, CYP2C9 (Homo sapiens, UniProt P11712). Briefly: Inhibitory activity of 20 uM SPP100 on 227 Pmoles of cDNA-derived CYP2C9 enzyme in microsome prepared from human lymphoblastoid cell line. More on the design: conc 20 uM, interact cpd conc 6 uM. Particulars: probe diclofenac. Type of data set: ADME, microsomes.
T2 sequence (P11712 whole entry): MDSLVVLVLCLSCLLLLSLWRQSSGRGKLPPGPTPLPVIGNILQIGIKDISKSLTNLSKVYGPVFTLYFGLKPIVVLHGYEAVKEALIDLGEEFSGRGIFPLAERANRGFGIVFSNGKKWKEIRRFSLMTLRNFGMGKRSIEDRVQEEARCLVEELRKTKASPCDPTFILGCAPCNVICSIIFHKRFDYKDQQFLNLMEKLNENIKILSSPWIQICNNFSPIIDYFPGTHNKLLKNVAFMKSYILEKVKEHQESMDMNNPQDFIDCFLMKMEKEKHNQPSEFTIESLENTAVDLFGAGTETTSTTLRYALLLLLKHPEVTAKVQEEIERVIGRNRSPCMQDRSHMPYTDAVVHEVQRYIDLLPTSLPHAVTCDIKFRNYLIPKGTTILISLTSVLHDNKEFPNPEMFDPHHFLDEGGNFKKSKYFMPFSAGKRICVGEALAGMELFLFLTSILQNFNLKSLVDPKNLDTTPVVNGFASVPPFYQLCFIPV
Data set [4] addresses T2, CYP2C9. Put plainly: Inhibitory activity of 200 uM SPP100 on 201 Pmoles of cDNA-derived CYP2C9 enzyme in microsome prepared from human lymphoblastoid cell line. Particulars: probe diclofenac. More on the design: conc 200 uM, interact cpd conc 6 uM. It counts as ADME, microsomes.
The next data set has as its target CYP2C19 (Homo sapiens, UniProt P33261). Put plainly: Inhibitory activity of 200 uM SPP100 on 1077 Pmoles of cDNA-derived CYP2C19 enzyme in microsome prepared from human lymphoblastoid cell line. It counts as ADME, microsomes. Details: conc 200 uM, interact cpd conc 50 uM. To be noted: probe (S)-mephenytoin (50 uM).
Data set [5] can be described thus: % of radioactivity recovered as aliskiren in faeces following oral administration of [14C] aliskiren hemifumarate at 100 mg.Kg-1 level in rat. It counts as ADME, organism-based, Albino HAN:WIST, Feces. Particulars: in vivo.
The nature of data set [6]: Effect of single oral dose of 300 mg [14C]SPP100 on ECG values studied in healthy men. It counts as toxicity, organism-based. To be noted: human, in vivo.
Data set [7] is described as follows: Excretion (0-24h) of radioactivity in faeces following oral administration of [14C] aliskiren hemifumarate at 3 mg.Kg-1 level in marmoset. To be noted: in vivo. Type of data set: ADME, organism-based, Callithrix jacchus, Feces.
Data set [8] in a line: Excretion (48h) of radioactivity in urine following oral administration of [14C] aliskiren hemifumarate at 100 mg.Kg-1 level in rat. Type of data set: ADME, organism-based, Lister-Hooded. Particulars: in vivo.
Data set [9] can be described thus: Tmax of [14C] aliskiren hemifumarate following single intravenous dose of [14C] aliskiren hemifumarate at 10 mg.Kg-1 level in mouse. Particulars: in vivo. It counts as ADME, organism-based, TgRasH2, Plasma.
Data set [10] is described as follows: Excretion of radioactivity (24-48h) in urine following single intravenous dose of 10 mg.Kg-1 [14C] aliskiren hemifumarate in mouse. To be noted: in vivo. It counts as ADME, organism-based, TgRasH2.
The nature of data set [11]: Excretion of radioactivity (0-72h) in urine following single intravenous dose of 10 mg.Kg-1 [14C] aliskiren hemifumarate in mouse. Type of data set: ADME, organism-based, TgRasH2. Particulars: in vivo.
The nature of data set [12]: Mean excretion of radioactivity (0-72h) in urine and faeces following single intravenous dose of 10 mg.Kg-1 [14C] aliskiren hemifumarate in mouse. It counts as ADME, organism-based, TgRasH2, Urine/Feces. To be noted: in vivo.
A short description of data set [13]: Total excretion (0-72h) of radioactivity in urine, faeces and cage wash following single intravenous dose of 10 mg.Kg-1 [14C] aliskiren hemifumarate in mouse. To be noted: in vivo. Type of data set: ADME, organism-based, TgRasH2, Urine/Feces.
The nature of data set [14]: Mean excretion of radioactivity (0-96h) in urine and faeces following single oral dose of 100 mg.Kg-1 [14C] aliskiren hemifumarate in rat. Type of data set: ADME, organism-based, Albino HAN:WIST, Urine/Feces. Particulars: in vivo.
Data set [15] can be described thus: Total excretion (0-96h) of radioactivity in urine, faeces and cage wash following single intravenous dose of 10 mg.Kg-1 [14C] aliskiren hemifumarate in mouse. It counts as ADME, organism-based, Urine/Feces. Particulars: rat, in vivo.
Data set [16] can be described thus: Concentration of radioactivity in the liver following repeated oral administration of [14C] aliskiren hemifumarate at 100 mg.Kg-1 level studied at 2h after 3rd dose in rat. To be noted: in vivo. It counts as ADME, organism-based, Albino HAN:WIST.
Data set [17] can be described thus: Concentration of radioactivity in the liver following repeated oral administration of [14C] aliskiren hemifumarate at 100 mg.Kg-1 level studied at 24h after 3rd dose in rat. Type of data set: ADME, organism-based, Albino HAN:WIST. To be noted: in vivo.
A short description of data set [18]: Concentration of radioactivity in the brown fat following repeated oral administration of [14C] aliskiren hemifumarate at 100 mg.Kg-1 level studied at 2h after 3rd dose in rat. It counts as ADME, organism-based, Albino HAN:WIST, Brown adipose tissue. To be noted: in vivo.
Data set [19] can be described thus: Cmax of aliskiren hemifumarate following single dosing of SPP100B oral solution at 160 mg level studied on day 1 in men. Type of data set: ADME, organism-based. To be noted: male, human, plasma.
Data set [20] in a line: Blood clearance (0-168h) of unlabeled aliskiren hemifumarate following single intravenous administration of aliskiren hemifumarate at 1 mg.Kg-1 level in marmoset. It counts as ADME, organism-based, Callithrix jacchus. To be noted: in vivo.
A short description of data set [21]: Tmax of aliskiren hemifumarate following single dosing of SPP100B oral solution at 640 mg level studied on day 1 in men. It counts as ADME, organism-based. Particulars: male, human, plasma.
A short description of data set [22]: Cmax (0-96h) of unlabeled aliskiren hemifumarate following oral administration of aliskiren hemifumarate at 100 mg.Kg-1 level in rat. Type of data set: ADME, organism-based. To be noted: Albino HAN:WIST, plasma.
A short description of data set [23]: Effect of 2 week oral dosing of aliskiren hemifumarate at 50 mg.Kg-1 level on blood urea nitrogen level in male Callithrix jacchus. Type of data set: toxicity, organism-based, Plasma. To be noted: marmoset, 336 h.
Data set [24] is described as follows: Effect of 2 week oral dosing of aliskiren hemifumarate at 50 mg.Kg-1 level on plasma magnesium level in female Callithrix jacchus. It counts as toxicity, organism-based. To be noted: marmoset, 336 h.
A short description of data set [25]: Cmax of aliskiren hemifumarate following 2 week oral dosing of aliskiren hemifumarate at 10 mg.Kg-1 level studied on day 1 in male Callithrix jacchus. To be noted: marmoset, plasma. It counts as ADME, organism-based.
Data set [26] is described as follows: Bioavailability (0-96h) of unlabeled aliskiren hemifumarate following oral administration of aliskiren hemifumarate at 100 mg.Kg-1 level in rat. To be noted: Albino HAN:WIST, plasma. It counts as ADME, organism-based.
Data set [27] can be described thus: Cmax/dose of aliskiren hemifumarate following 4 week oral dietary dosing of aliskiren hemifumarate at 2000 mg.Kg-1 level in male mouse. Type of data set: ADME, organism-based, CB6F1-TGrasH2. Particulars: in vivo, 672 h.
Data set [28] in a line: Tmax of aliskiren hemifumarate following 2 week oral dosing of aliskiren hemifumarate at 10 mg.Kg-1 level studied on […] in male Callithrix jacchus. It counts as ADME, organism-based. To be noted: marmoset, plasma.
Data set [29] is described as follows: AUC(0-24h) of aliskiren hemifumarate following 2 week oral dosing of aliskiren hemifumarate at 50 mg.Kg-1 level studied on day 14 in male Callithrix jacchus. Particulars: marmoset, plasma. It counts as ADME, organism-based.
Data set [30] can be described thus: AUCspec of aliskiren hemifumarate following 2 week oral dosing of aliskiren hemifumarate at 10 mg.Kg-1 level studied on […] in male Callithrix jacchus. It counts as ADME, organism-based, Plasma. Particulars: marmoset, in vivo, 336 h.
The nature of data set [31]: AUC infinity of aliskiren hemifumarate following 2 week oral dosing of aliskiren hemifumarate at 50 mg.Kg-1 level studied on day 1 in male Callithrix jacchus. To be noted: marmoset, plasma, read-out: AUC infinity. It counts as ADME, organism-based.

CYP2C19, sequence (P33261 whole entry): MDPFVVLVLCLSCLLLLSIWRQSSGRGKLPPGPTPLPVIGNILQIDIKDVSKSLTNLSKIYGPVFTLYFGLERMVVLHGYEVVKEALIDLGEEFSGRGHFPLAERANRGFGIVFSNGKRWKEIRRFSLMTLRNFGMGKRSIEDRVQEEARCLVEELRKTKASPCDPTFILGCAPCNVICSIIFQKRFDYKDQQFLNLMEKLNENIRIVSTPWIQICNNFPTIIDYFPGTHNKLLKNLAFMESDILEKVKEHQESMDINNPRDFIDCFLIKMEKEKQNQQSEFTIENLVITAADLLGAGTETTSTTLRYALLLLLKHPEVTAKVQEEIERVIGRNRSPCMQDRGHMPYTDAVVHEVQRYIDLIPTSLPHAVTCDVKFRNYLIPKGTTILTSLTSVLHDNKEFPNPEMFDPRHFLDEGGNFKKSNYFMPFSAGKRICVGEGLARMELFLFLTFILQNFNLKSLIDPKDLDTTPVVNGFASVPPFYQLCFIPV

As a reminder, the half-life is the time in which the quantity being followed falls by half. Low readings indicate fast loss, high ones slow loss. As a reminder, the inhibition is the drop in the measured response relative to a control, in per cent. `COCCCOc1cc(C[C@@H](C[C@H](N)[C@@H](O)C[C@H](C(=O)NCC(C)(C)C(N)=O)C(C)C)C(C)C)ccc1OC` gave a half-life in [1] of 54 h. Besides, the Compound recovery in [2] is given as 3%; in data set [5], > 40%. Further, the inhibition at 200 µM on CYP1A2 was 6%; against CYP2C9 [4] it was 23%; on CYP2C19, 9.6%. The molecule further returned an inhibition at 20 µM against CYP2C9 [3] of 13.1%.

Broadly, the Tmax is the time at which the peak concentration occurs. For the molecule `COCCCOc1cc(C[C@@H](C[C@H](N)[C@@H](O)C[C@H](C(=O)NCC([14CH3])([14CH3])C(N)=O)C(C)C)C(C)C)ccc1OC.O=C(O)/C=C/C(=O)O`, the ECG entry in data set [6] was “OUTCOME = ECG findings were all considered as normal”. Besides, the Radiolabel recovery stood at 84% in data set [7]; 0.576% in data set [8]; 9.49% in data set [10]; 87.94% in data set [11]; 93.08% in [12]; 93.38% in data set [13]. The Radiolabel recovery is reported as 95.1% in data set [14]; 96.2% in data set [15]; “OUTCOME = Detected” in data set [16]; “OUTCOME = Detected” in [17]; “OUTCOME = Detected” in data set [18]. In addition, in [9], the Tmax was 4.98 min.

Broadly, the Cmax is the highest concentration seen after dosing. A word on the bioavailability: it is dose-corrected exposure relative to a reference, in per cent. Read a low bioavailability as poor availability. In general, AUC refers to concentration integrated over time. On to `COCCCOc1cc(C[C@@H](C[C@H](N)[C@@H](O)C[C@H](C(=O)NCC(C)(C)C(N)=O)C(C)C)C(C)C)ccc1OC.COCCCOc1cc(C[C@@H](C[C@H](N)[C@@H](O)C[C@H](C(=O)NCC(C)(C)C(N)=O)C(C)C)C(C)C)ccc1OC.O=C(O)/C=C/C(=O)O` [ALISKIREN FUMARATE], for which the Cmax in data set [19] was found to be 21.5 ng/mL; in [22], 270 nM; in data set [25], 3960 ng/mL. The molecule also showed a Blood clearance in data set [20] of 0.055 L·h/kg. In addition, the time of peak concentration (Tmax) came out at 2.1 h in data set [21] and 2 h in data set [28]. The molecule also showed a BUN_CHANGE_BY in data set [23] of 105%. Moreover, in [24], the “Plasma magnesium_CHANGE_BY” value turned out to be 130%. The same molecule returned a bioavailability in data set [26] of 2.4%. Moreover, the Cmax normalised in data set [27] is reported as 0.22 (ng/mL)/(mg/kg/day). Moreover, the AUC at 24 h in data set [29] was 107000 ng·h/mL. Besides, in [30], the AUC normalised is given as 3.39 ((ug.h.ml-1)/(mg/kg). Besides, the AUC(0-inf) in [31] turned out to be 64000 ng·h/mL.

(Values after ChEMBL document CHEMBL3508693 (2016).)
